According to patent US20240252472A1, “COMBINATIONS FOR TREATING CANCER” (Purdue Pharma L.P., priority 2023, published 2024):

Tested on: CD38 mRNA
Test: CD38 mRNA by RT-qPCR in MM cell lines
Assay type: cell-based, human
Conditions: MM1.S, JJN3, RPMI-8226; 1 and 2.5 μM, 36 hours
Experimental: Real time quantitative PCR (RT-qPCR) Total RNA was isolated using the RNeasy Mini Kit (Qiagen, Hilden, Germany). Following reverse transcription, PCR was performed using TaqMan Gene Expression Assays (Applied Biosystems, Foster City, CA, USA): CD38 (Hs01120071_m1), MICA (Hs00741286_m1), MICB (Hs00792952_m1) and GAPDH (Hs99999905_m1). The results were expressed as fold change relative to expression of the target gene in control cells, using endogenous expression of GAPDH for normalization.

Cn1c(CCCCCCC(=O)NO)nc2cc(N(CCCl)CCCl)ccc21 [EDO-S101, 7-(5-(bis(2-chloroethyl)amino)-1-methyl-1H-benzo[d]imidazol-2-yl)-N-hydroxyheptanamide]
CD38 expression at the transcriptional level (qPCR): increased
